Experimental data reported in US7105538B2, “2-pyrrolidin-2-yl-[1,3,4]-oxadiazole compounds and their use as anti-depressants” (Gruenenthal GmbH, priority 2002, dated 2006).

system: 5HT uptake (serotonin re-uptake), synaptosomes from rat brain; assay: Inhibition of serotonin re-uptake (5HT-uptake inhibition) in rat brain synaptosomes; assay type: biochemical; settings: synaptosomes (P2 fraction) from medulla+pons region of male rats' brains; test concentration not given
Description: Tests of Inhibition of Serotonin Re-Uptake (5HT-Uptake Inhibition)
To be able to carry out these studies in vitro, synaptosomes were freshly isolated from rat brain areas. What is known as a “P2” fraction was used in each case. This was prepared in accordance with Gray and Whittaker's directions (E. G. Gray and V. P. Whittaker (1962) J. Anat. 76, 79–88). These vesicular particles were isolated from the medulla+pons region of male rats' brains for 5HT uptake. A detailed description of the method may be found in the literature (M. Ch. Frink, H.-H. Hennies, W. Englberger, M. Haurand and B. Wilffert (1996) Arzneim. -Forsch./Drug Res. 46 (III), 11,1029–1036). The 5HT-uptake inhibition of the following compounds was tested by way of example: […]

| Structure (SMILES) | 5HT uptake, % inhibition [%] |
| --- | --- |
| CCOC(=O)CCC(=O)N1CCCC1c1nnc(-c2ccncc2)o1 (centres unmarked) [Example 4, 4-oxo-4-[2-(5-pyridin-4-yl-[1,3,4]oxadiazol-2-yl)-pyrrolidin-1-yl]-butyric acid ethyl ester] | 72 |
| COc1ccc(OC)c(CS(=O)(=O)N2CCCC2c2nnc(-c3cccnc3)o2)c1 (centres unmarked) [Example 30, 3-{5-[1-(2,5-dimethoxyl-benzylsulfonyl)-pyrrolidin-2-yl]-[1,3,4]oxadiazol-2-yl}-pyridine] | 60 |
| CCOc1ccc(C(=O)N2CCCC2c2nnc(-c3ccccc3)o2)cc1 (centres unmarked) [Example 109, (4-ethoxy-phenyl)-[2-(5-phenyl-[1,3,4]oxadiazol-2-yl)-pyrrolidin-1-yl]-methanone] | 54 |
| Cc1nn(-c2ccccc2)nc1C(=O)N1CCCC1c1nnc(-c2ccncc2)o1 (centres unmarked) [Example 85, (5-methyl-2-phenyl-[1,2.3]triazol-4-yl)-[2-(5-pyridin-4-yl-[1,3,4]oxadiazol-2-yl)-pyrrolidin-1-yl]-methanone] | 61 |
| O=S(=O)(c1cc(Cl)c(Cl)s1)N1CCCC1c1nnc(-c2ccncc2)o1 (centres unmarked) [Example 22, 4-{5-[1-(4,5-dichloro-thiophene-2-sulfonyl)-pyrrolidin-2-yl]-[1,3,4]oxadiazol-2-yl}-pyridine] | 60 |
| COc1cccc(-c2nnc(C3CCCN3C(=O)c3cccc(F)c3F)o2)c1 (centres unmarked) [Example 173, (2,3-difluoro-phenyl)-{2-[5-(3-methoxy-phenyl)-[1,3,4]oxadiazol-2-yl]-pyrrolidin-1-yl}-methanone] | 62 |
| O=C(C=Cc1ccccc1)N1CCCC1c1nnc(-c2ccccc2)o1 (centres unmarked) [Example 84, 3-phenyl-1-[2-(5-phenyl-[1,3,4]oxadiazol-2-yl)-pyrrolidin-1-yl]-propenone] | 61 |
| O=C(COc1ccc(Cl)cc1)N1CCCC1c1nnc(-c2ccncc2)o1 (centres unmarked) [Example 67, 2-(4-chloro-phenoxy)-1-[2-(5-pyridin-4-yl-[1,3,4]oxadiazol-2-yl)-pyrrolidin-1-yl]-ethanone] | 50 |
| O=S(=O)(Cc1ccc(F)cc1F)N1CCCC1c1nnc(-c2cccnc2)o1 (centres unmarked) [Example 86, 3-{5-[1-(2,4-difluoro-benzylsulfonyl)-pyrrolidin-2-yl]-[1,3,4]oxadiazol-2-yl}-pyridine] | 73 |
| CC1(C)C2CCC1(CS(=O)(=O)N1CCCC1c1nnc(-c3ccncc3)o1)C(=O)C2 (centres unmarked) [Example 7, 7,7-dimethyl-1-[2-(5-pyridin-4-yl-[1,3,4]oxadiazol-2-yl)-pyrrolidin-1-sulfonylmethyl]-bicyclo[2.2.1]heptan-2-one] | 64 |
| O=C(c1c(F)cccc1F)N1CCCC1c1nnc(-c2ccncc2)o1 (centres unmarked) [Example 101, (2,6-difluoro-phenyl)-[2-(5-pyridin-4-yl-[1,3,4]oxadiazol-2-yl)-pyrrolidin-1-yl]-methanone] | 54 |
| COc1cccc(-c2nnc(C3CCCN3C(=O)c3ccc(Br)cc3)o2)c1 (centres unmarked) [Example 92, (4-bromo-phenyl)-{2-[5-(3-methoxy-phenyl)-[1,3,4]oxadiazol-2-yl]-pyrrolidin-1-yl}-methanone] | 58 |
| O=C(N1CCc2ccc(S(=O)(=O)N3CCCC3c3nnc(-c4ccncc4)o3)cc2C1)C(F)(F)F (centres unmarked) [Example 182, 2,2,2-trifluoro-1-{7-[2-(5-pyridin-4-yl-[1,3,4]oxadiazol-2-yl)-pyrrolidin-1-sulfonyl]-3,4-dihydro-1H-isoquinolin-2-yl}-ethanone] | 52 |
| O=C(c1ccc(SC(F)(F)F)cc1)N1CCCC1c1nnc(-c2ccccc2)o1 (centres unmarked) [Example 181, [2-(5-phenyl-[1,3,4]oxadiazol-2-yl)-pyrrolidin-1-yl]-(4-trifluoromethylsulfanyl-phenyl)-methanone] | 62 |
| Cc1cc(C)c(CS(=O)(=O)N2CCCC2c2nnc(-c3ccccc3F)o2)c(C)c1 (centres unmarked) [Example 61, 2-(2-fluoro-phenyl)-5-[1-(2,4,6-trimethyl-benzylsulfonyl)-pyrrolidin-2-yl]-[1,3,4]oxadiazole] | 50 |
| Cc1nc(C(F)(F)F)ccc1C(=O)N1CCCC1c1nnc(-c2ccccc2)o1 (centres unmarked) [Example 174, (2-methyl-6-trifluoromethyl-pyridin-3-yl)-[2-(5-phenyl-[1,3,4]oxadiazol-2-yl)-pyrrolidin-1-yl]-methanone] | 61 |
| O=C(c1ccc(Cl)cc1)N1CCCC1c1nnc(-c2ccc(-c3ccccc3)cc2)o1 (centres unmarked) [Example 14, [2-(5-biphenyl-4-yl-[1,3,4]oxadiazol-2-yl)-pyrrolidin-1-yl]-(4-chloro-phenyl)-methanone] | 69 |
| Cc1ccc(CS(=O)(=O)NC(Cc2ccccc2)C(=O)N2CCCC2c2nnc(-c3ccncc3)o2)cc1 (centres unmarked) [Example 21, N-{1-benzyl-2-oxo-2-[2-(5-pyridin-4-yl-[1,3,4]oxadiazol-2-yl)-pyrrolidin-1-yl]-ethyl}-4-methyl-benzylsulfonamide] | 53 |
| O=C(c1cc(C(F)(F)F)ccc1C(F)(F)F)N1CCCC1c1nnc(-c2ccc(Cl)cc2)o1 (centres unmarked) [Example 164, (2,5-bis-trifluoromethyl-phenyl)-{2-[5-(4-chloro-phenyl)-[1,3,4]oxadiazol-2-yl]-pyrrolidin-1-yl}-methanone] | 80 |
| CCCc1c(C(=O)N2CCCC2c2nnc(-c3cccnc3)o2)cnn1-c1ccccc1 (centres unmarked) [Example 166, (1-phenyl-5-propyl-1H-pyrazol-4-yl)-[2-(5-pyridin-3-yl-[1,3,4]oxadiazol-2-yl)-pyrrolidin-1-yl]-methanone] | 78 |
| O=C(c1cccnc1Cl)N1CCCC1c1nnc(-c2ccncc2)o1 (centres unmarked) [Example 6, (2-chloro-pyridin-3-yl)-[2-(5-pyridin-4-yl-[1,3,4]oxadiazol-2-yl)pyrrolidin-1-yl]-methanone] | 84 |
| COc1cccc(-c2nnc(C3CCCN3C(=O)c3ccnc(Cl)c3)o2)c1 (centres unmarked) [Example 94, (2-chloro-pyridin-4-yl)-{2-[5-(3-methoxy-phenyl)-[1,3,4]oxadiazol-2-yl]-pyrrolidin-1-yl}-methanone] | 50 |
| COc1ccc(C(=O)N2CCCC2c2nnc(-c3ccncc3)o2)c(OC)c1 (centres unmarked) [Example 5, (2,4-dimethoxy-phenyl)-[2-(5-pyridin-4-yl-[1,3,4]oxadiazol-2-yl)-pyrrolidin-1-yl]methanone] | 81 |
| COc1ccc(CC(=O)N2CCCC2c2nnc(-c3ccncc3)o2)cc1OC (centres unmarked) [Example 13, 2-(3,4-dimethoxy-phenyl)-1-[2-(5-pyridin-4-yl-[1,3,4]oxadiazol-2-yl)-pyrrolidin-1-yl]-ethanone] | 67 |
| O=C(c1cc(C(F)(F)F)ccc1C(F)(F)F)N1CCCC1c1nnc(-c2cccs2)o1 (centres unmarked) [Example 165, (2,5-bis-trifluoromethyl-phenyl)-[2-(5-thiophen-2-yl-[1,3,4]oxadiazol-2-yl)-pyrrolidin-1-yl]-methanone] | 76 |
| O=S(=O)(Cc1ccc(OC(F)(F)F)cc1)N1CCCC1c1nnc(-c2cccnc2)o1 (centres unmarked) [Example 134, 3-{5-[1-(4-trifluoromethoxy-benzylsulfonyl)-pyrrolidin-2-yl]-[1,3,4]oxadiazol-2-yl}-pyridine] | 55 |
| CN(C)c1cccc(C(=O)N2CCCC2c2nnc(-c3cccnc3)o2)c1 (centres unmarked) [Example 12, (3-dimethyamino-phenyl)-[2-(5-pyridin-3-yl-[1,3,4]oxadiazol-2-yl)-pyrrolidin-1-yl]-methanone] | 54 |

system: phenylquinone-induced writhing in mice; assay: Analgesic efficacy by phenylquinone-induced writhing in mice; assay type: in vivo; settings: male NMRI mice; 10 mg/kg i.v., 10 min before phenylquinone i.p.; writhing counted 5-20 min after phenylquinone
Description: Investigation of Analgesic Efficacy by Testing Writhing in Mice
The investigation into analgesic efficacy was performed by phenylquinone-induced writhing in mice (modified after: I. C. Hendershot and J. Forsaith (1959), J. Pharmacol. Exp. Ther. 125, 237–240). Male NMRI mice weighing from 25 to 30 g were used for this purpose. 10 minutes after intravenous administration of the compounds tested, groups of 10 animals per substance dose received 0.3 ml/mouse of a 0.02% aqueous solution of phenylquinone (phenylbenzoquinone, Sigma, Deisenhofen; solution prepared by adding 5% of ethanol and stored in a water bath at 45° C.) administered intraperitoneally. The animals were placed individually into observation cages. A pushbutton counter was used to record the number of pain-induced stretching movements (writhing reactions=straightening of the torso with stretching of the rear extremities) for 5–20 minutes after phenylquinone administration. The control was provided by animals which received only physiological common salt solution. All substances were tested at the standard dosage of 10 mg/kg. The percentage inhibition (% inhibition) of the writhing reactions by a substance was calculated according to the following formula: […]

| Structure (SMILES) | % inhibition of writhing reaction by intravenous administration of 10 mg/kg [%] |
| --- | --- |
| O=C(CCC1CCCC1)N1CCCC1c1nnc(-c2cccc(Cl)c2)o1 (centres unmarked) [Example 247, 1-{2-[5-(3-chloro-phenyl)-[1,3,4]oxadiazol-2-yl]-pyrrolidin-1-yl}-3-cyclopentyl-propan-1-one] | 33 |
| CCCCC(=O)N1CCCC1c1nnc(-c2cccc(Cl)c2)o1 (centres unmarked) [Example 248, 1-{2-[5-(3-chloro-phenyl)-[1,3,4]oxadiazol-2-yl]-pyrrolidin-1-yl}-pentan-1-one] | 45 |
